The test system of one assay is MV4-11 cells. Put plainly: MV4-11 cell proliferation inhibition assay (MTS). Particulars: MTS read on the third day. The class given is cell-based. The method, then:
(a) SHP099 and TNO155 were used as positive controls.
(b) MV4-11 cells (10,000 cells/well) were seeded in a 96-well culture plate with 100 μL/well of the culture medium (IMDM supplemented with 10% fetal bovine serum (FBS), from Gibco company), and cultured for 6 hours. The compounds formulated in different concentrations of the present invention were added. On the third day, 20 μL of MTS reagent (purchased from Promega Company) was added to each well, and the absorbance value was detected according to the reagent instructions (Promega Company). The IC50 of the inhibitory activity of the compounds of the present invention against the MV4-11 cell proliferation is shown in Table 2.

In assay [1] the test system is p-ERK 1/2 (Thr202/Tyr204) in MIAPaca-2 cells. Put plainly: Cell protein kinase (p-ERK) phosphorylation inhibition, AlphaLISA. Format: cell-based. To be noted: treated for 2 hours. The method, then: The inhibition of the phosphorylation level of intracellular protein kinase (ERK) by a compound was detected by AlphaLISA method. The first step was to treat the cells with the compound. The compound to be tested was first diluted 5-fold with 100% DMSO, and a gradient including a total of 9 different concentrations was set; then MIAPaca-2 cells were inoculated into a 96-well plate at a density of 40,000 cells per well, with a volume of 80 μL per well; then 20 μL of DMSO or the compound to be tested with different concentrations was added to each well, with 2 replicates for each concentration, and the final concentration of DMSO was controlled at 0.5%. The second step was to lyse the cells. After the cells were treated for 2 hours, the culture medium was removed, and the cells were washed three times with a HBSS solution. 50 μL of a freshly prepared lysis buffer was added to each well, shaken, and left at room temperature for 10 minutes. […] 10 μL of the above lysate was put into a 384-well plate (Perkin Elmer, 6005350), and the phosphorylation level of the extracellular signal-regulated kinase in the sample was detected according to the manufacturer's instructions. Signals were read using the AlphaScreen detector on an Envision multifunctional microplate reader (PerkinElmer). The inhibition (%) was calculated by the following equation: […]

Usually IC50 stands for the point on the concentration scale where inhibition reaches its midpoint. A lower IC50 goes with higher potency.

SMILES strings stand for the structures.

In the assay with MV4-11 cells, `CC1(N)CCN(c2cnc(-c3cccc(Cl)c3Cl)c(N)n2)CC1` [SHP099] had a concentration for half-maximal inhibition (IC50) of 0.883 ± 0.105 µM. Take `C[C@@H]1OCC2(CCN(c3cnc(Sc4ccnc(N)c4Cl)c(N)n3)CC2)[C@@H]1N` [TNO155]: the IC50 in the assay with MV4-11 cells is 0.118 ± 0.0058 µM; in assay [1], 0.03 µM.

These data come from patent US20240270753A1, “HETEROCYCLIC COMPOUND FOR INHIBITING SHP2 ACTIVITY, PREPARATION METHOD THEREFOR AND USE THEREOF” (SHANGHAI INSTITUTE OF MATERIA MEDICA, CHINESE ACADEMY OF …, priority 2021, published 2024).
